Structures are written as SMILES.

We go through 1 molecule from publication PMC12096834, “Antimicrobial peptide plectasin recombinantly produced in Escherichia coli disintegrates cell walls of gram-positive bacteria, as proven by transmission electron and atomic force microscopy” (Journal of Bacteriology, 2025).

The subject of one data set is Enterococcus faecalis. As to the kind of experiment: AFM cell thickness, stiffness and roughness. The data set is classed as cell-based. To be noted: plectasin 4 x MIC, CASPON-plectasin same molar quantity, mean ± SD of 20 measurements; for Stiffness: AFM force spectroscopy, untreated 8.0 ± 3.7. How it is done: (§1) All AFM measurements were performed on a Vecoo-Bruker AFM (Diamond, Chilton, UK), including imaging and force distance measurement. Before and after measurements, the triangular cantilever was cleaned with EtOH and acetone. Sensitivity and the spring constant were calibrated by the thermal tune method by making use of the equipartition theorem, preceded by continued ramping. After calibration, the spring constant was set to 0.4017 N/m for performing measurements.
(§2) Bacterial suspensions were prepared by taking bacterial colonies out of overnight grown agar plates and resuspending them in MHB. The suspension was set to an OD625 extinction of 0.15–0.20 corresponding to a bacterial cell density of approximately 2 × 10^8 CFU/mL. Then, 3 × 1 mL of suspension was transferred into a 2-mL reaction tube and mixed with either plectasin, CASPON-plectasin, or PBS buffer to obtain volume conditions. The concentration for plectasin was 4 x MIC, and CASPON-plectasin was of the same molar quantity as plectasin. After incubation, the bacterial suspensions were washed with PBS three times, using mild centrifugation conditions for each wash cycle (3,000 g, 15 minutes) to avoid cell damage. The washed bacterial suspension was transferred to borosilicate glass slides (24 mm diameter, 0.1 mm thickness, Menzel Gläser, Braunschweig, Germany) and left to adhere to the surface (electrostatics) for 1 hour. Afterward, the slides were washed with MilliQ water and transferred to AFM.
(§3) Bacterial images were visualized by square areas of 2 × 2 µm^2 up to 25 × 25 µm^2 with a resolution of 512 × 512 pixels. At least 15 images were taken per sample with different square dimensions for proper visualization. Surface roughness and shapes of the bacterial cell were estimated using Gwyddion software after applying a mean filter to the raw images. A total of 20 measurements were taken on cells for each parameter, providing enough values for statistical evaluation. For additional information and an illustration of the determination principle, please refer to the supplementary material (Fig. S3), which includes an example on S. aureus. By using the following equations, the surface roughness of a selected area of this flattened area was calculated from the standard deviation in the height image. The mean roughness (Ra) and the root-mean-square roughness (Rq or RMS) were used to characterize the surface of different samples:
(§4) After the position of the bacteria was determined, force spectroscopy was performed. Measurement of the central region of bacteria was performed with an approach speed of 10 µm/s and a maximum force of 2 nN. A curve length of 1 µm and a sampling rate of 2 kHz were used. At least 20 bacteria per sample were measured. Analysis of the force distance curves was performed using the software NanoScope Analysis 1.5. For calculating the stiffness of each bacterial cell, the following question was utilized:
(§5) where keff is the effective stiffness (received from the slope of the measured curve), ksample is the stiffness of the sample (bacterial cell), and kspring is the spring constant (0.4017 N/m). All constants have the unit N/m. Rearrangement of the formula leads to the following relation: […]
(§6) Measurements were pooled, and properties were calculated as described above. For each parameter, 20 measurements were used to obtain appropriate statistical values. Analysis of variance (ANOVA) was performed, followed by Student’s t-test, which is a statistical procedure that compares the averages of two independent groups (plectasin/CASPON-plectasin treated vs untreated) to determine significance in the surface roughness and stiffness of bacteria. Significances are indicated in figures and reported as “ns” for P > 0.05, “*” for P ≤ 0.05, “**” for P ≤ 0.01, and “***” for P ≤ 0.001.

A further data set concerns Listeria monocytogenes. As to the kind of experiment: AFM cell thickness, stiffness and roughness. To be noted: plectasin 4 x MIC, CASPON-plectasin same molar quantity, mean ± SD of 20 measurements; for Stiffness: AFM force spectroscopy, untreated 5.4 ± 3.1. Type of data set: cell-based. As to the method:
as §1, §2, §3, §4, §5, §6

The next data set relates to Staphylococcus aureus. Description: AFM cell thickness, stiffness and roughness. The data set is classed as cell-based. To be noted: plectasin 4 x MIC, CASPON-plectasin same molar quantity, mean ± SD of 20 measurements; for Stiffness: AFM force spectroscopy, untreated 5.3 ± 2.3. As to the method:
as §1, §2, §3, §4, §5, §6

The subject of another data set is Streptococcus pneumoniae. Description: AFM cell thickness, stiffness and roughness. The data set is classed as cell-based. To be noted: plectasin 4 x MIC, CASPON-plectasin same molar quantity, mean ± SD of 20 measurements; for Stiffness: AFM force spectroscopy, untreated 6.2 ± 2.4. As to the method:
as §1, §2, §3, §4, §5, §6

The conditions of data set [1]: published findings; 59 (Mygind et al. 2005); cited from earlier work.

On to `CC[C@H](C)[C@@H]1NC(=O)[C@H](CO)NC(=O)[C@H](CCCCN)NC(=O)[C@@H]2CSSC[C@@H](C(=O)N[C@@H](Cc3ccc(O)cc3)C(=O)O)NC(=O)[C@H](CCCCN)NC(=O)[C@@H]3CSSC[C@H](NC(=O)[C@H](CCC(N)=O)NC(=O)[C@H](CCSC)NC(=O)[C@H](CC(=O)O)NC(=O)[C@H](CC(=O)O)NC(=O)[C@H](CCC(=O)O)NC(=O)[C@H](CC(=O)O)NC(=O)[C@H](Cc4c[nH]c5ccccc45)NC(=O)[C@@H]4CCCN4C(=O)CNC(=O)[C@H](CC(N)=O)NC(=O)[C@@H](NC(=O)CNC(=O)[C@H](Cc4ccccc4)NC(=O)CN)CSSC[C@H](NC(=O)[C@H](Cc4ccc(O)cc4)NC(=O)CNC(=O)CNC(=O)[C@H](CCCCN)NC(=O)[C@H](Cc4ccc(O)cc4)NC(=O)CNC(=O)[C@H](CCCCN)NC1=O)C(=O)N[C@@H](C)C(=O)N[C@@H](CCCCN)C(=O)NCC(=O)NCC(=O)N[C@@H](Cc1ccccc1)C(=O)N[C@@H](C(C)C)C(=O)N3)C(=O)N[C@@H](Cc1c[nH]cn1)C(=O)N[C@@H](CC(N)=O)C(=O)N[C@@H](Cc1c[nH]cn1)C(=O)N2` [Plectasin, plectasin], for which the Stiffness entry with Enterococcus faecalis was “approximately 4 N/m”; in the data set with Enterococcus faecalis (SD), 4.6 ± 1.9 N/m; in the data set with Listeria monocytogenes, “approximately 4 N/m”; with Listeria monocytogenes (SD) it was 3.5 ± 1.4 N/m; in the data set with Staphylococcus aureus it was “approximately 4 N/m”; in the data set on Staphylococcus aureus (SD), 3.7 ± 1.7 N/m. The Stiffness entry was “approximately 4 N/m” with Streptococcus pneumoniae and 4.7 ± 1.1 N/m in the data set on Streptococcus pneumoniae (SD). Moreover, the “Ra (mean roughness)” value in the data set on Enterococcus faecalis (AFM, untreated 10.0 ± 2.5, SD) came out at 19.4 ± 3.2 nm; in the data set on Listeria monocytogenes (AFM, untreated 8.1 ± 2.5, SD), 13.5 ± 2.4 nm; with Staphylococcus aureus (AFM, untreated 19.4 ± 3.5, SD), 24.76 ± 6.7 nm; in the data set on Streptococcus pneumoniae (AFM, untreated 15.5 ± 4.2, SD), 19.7 ± 5.3 nm. The “Rq (root-mean-square roughness)” value came to 23.5 ± 3.4 nm in the data set on Enterococcus faecalis (AFM, untreated 12.2 ± 3.4, SD); 16.9 ± 2.8 nm in the data set on Listeria monocytogenes (AFM, untreated 11.2 ± 3.4, SD); 30.9 ± 8.0 nm in the data set with Staphylococcus aureus (AFM, untreated 24.0 ± 4.4, SD); 24.5 ± 6.0 nm with Streptococcus pneumoniae (AFM, untreated 18.8 ± 4.8, SD). The Cell thickness with Enterococcus faecalis (AFM, untreated 480.3 ± 30.6, SD) is listed as 473.5 ± 47.5 nm; with Listeria monocytogenes (AFM, untreated 297.0 ± 13.3, SD), 297.8 ± 14.0 nm; in the data set on Staphylococcus aureus (AFM, untreated 485.9 ± 26.5, SD) it was 467.2 ± 45.1 nm; in the data set with Streptococcus pneumoniae (AFM, untreated 375.8 ± 28.4, SD) it was 366.0 ± 54.1 nm. Besides, the “maximum solubility of plectasin” value in data set [1] is recorded as ~ 1.6 g/L.
